Measurements reported in the supplement of paper PMC11451515.

System: SEM cells
Test: cell viability relative to DMSO control; higher = less cytotoxic
Settings: 48 h
Outline: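 Viability is expressed as a percentage of DMSO wells within each plate, and cell-free wells serve as background. Seeding densities in the 1536-well plates (5 μl) were 500 cells/well for NOMO1 or SEM leukemia cells and 1000 cells/well for P12-Ichikawa. Each line was adapted for at least four passages in each medium. Library compounds in DMSO were pin-dosed at 47 μM to 0.79 nM (11 points, threefold), and CellTiter-Glo One luminescence was read after 48 h at 37°C.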

[1] = HPLM + 10% dialyzed FBS, 0.000781 µM
[2] = HPLM + 10% dialyzed FBS, 0.00234 µM
[3] = HPLM + 10% dialyzed FBS, 0.00702 µM
[4] = HPLM + 10% dialyzed FBS, 0.0211 µM
[5] = HPLM + 10% dialyzed FBS, 0.0632 µM
[6] = HPLM + 10% dialyzed FBS, 0.19 µM
[7] = HPLM + 10% dialyzed FBS, 0.569 µM
[8] = HPLM + 10% dialyzed FBS, 1.71 µM
[9] = HPLM + 10% dialyzed FBS, 5.12 µM
[10] = HPLM + 10% dialyzed FBS, 15.4 µM
[11] = HPLM + 10% dialyzed FBS, 46.1 µM
[12] = RPMI 5 mM glucose + 10% FBS, 0.000781 µM
[13] = RPMI 5 mM glucose + 10% FBS, 0.00234 µM
[14] = RPMI 5 mM glucose + 10% FBS, 0.00702 µM
[15] = RPMI 5 mM glucose + 10% FBS, 0.0211 µM
[16] = RPMI 5 mM glucose + 10% FBS, 0.0632 µM
[17] = RPMI 5 mM glucose + 10% FBS, 0.19 µM
[18] = RPMI 5 mM glucose + 10% FBS, 0.569 µM
[19] = RPMI 5 mM glucose + 10% FBS, 1.71 µM
[20] = RPMI 5 mM glucose + 10% FBS, 5.12 µM
[21] = RPMI 5 mM glucose + 10% FBS, 15.4 µM
[22] = RPMI 5 mM glucose + 10% FBS, 46.1 µM
[23] = RPMI 5 mM glucose + 10% dialyzed FBS, 0.000781 µM
[24] = RPMI 5 mM glucose + 10% dialyzed FBS, 0.00234 µM
[25] = RPMI 5 mM glucose + 10% dialyzed FBS, 0.00702 µM
[26] = RPMI 5 mM glucose + 10% dialyzed FBS, 0.0211 µM
[27] = RPMI 5 mM glucose + 10% dialyzed FBS, 0.0632 µM
[28] = RPMI 5 mM glucose + 10% dialyzed FBS, 0.19 µM
[29] = RPMI 5 mM glucose + 10% dialyzed FBS, 0.569 µM
[30] = RPMI 5 mM glucose + 10% dialyzed FBS, 1.71 µM
[31] = RPMI 5 mM glucose + 10% dialyzed FBS, 5.12 µM
[32] = RPMI 5 mM glucose + 10% dialyzed FBS, 15.4 µM
[33] = RPMI 5 mM glucose + 10% dialyzed FBS, 46.1 µM

SMILES | cell viability [1] | cell viability [2] | cell viability [3] | cell viability [4] | cell viability [5] | cell viability [6] | cell viability [7] | cell viability [8] | cell viability [9] | cell viability [10] | cell viability [11] | cell viability [12] | cell viability [13] | cell viability [14] | cell viability [15] | cell viability [16] | cell viability [17] | cell viability [18] | cell viability [19] | cell viability [20] | cell viability [21] | cell viability [22] | cell viability [23] | cell viability [24] | cell viability [25] | cell viability [26] | cell viability [27] | cell viability [28] | cell viability [29] | cell viability [30] | cell viability [31] | cell viability [32] | cell viability [33]
OC[C@H]1O[C@H](C[C@@H]1O)N2/C=C(C(=O)NC2=O)/C(F)(F)F | 77.4% | 95.7% | 90.9% | 89.9% | 92.3% | 88.7% | 72.5% | 50.2% | 26.2% | 20.5% | 11.8% | 101% | 104% | 116% | 101% | 109% | 123% | 111% | 103% | 79.5% | 30.4% | 15.5% | 100% | 124% | 111% | 115% | 98.3% | 117% | 93.9% | 66.8% | 22.6% | 15.5% | 10.3%
COC1=CC=C(C=C1)/C2=C(O)/C(=O)C3=C(O)C=C(O)C(=C3O2)CC=C(C)C | 104% | 95.9% | 98.8% | 114% | 122% | 111% | 109% | 118% | 107% | 97.8% | 120% | 86.7% | 86.2% | 90.8% | 85.6% | 95.2% | 100% | 93.4% | 92% | 94.1% | 80.4% | 95.2% | 105% | 103% | 115% | 115% | 120% | 113% | 124% | 118% | 125% | 121% | 108%
CCCN[C@H]1CCc2nc(N)sc2C1 | 93.2% | 42% | 98.4% | 98.8% | 104% | 96.4% | 95.4% | 99.2% | 104% | 99.8% | 105% | 91.7% | 39.1% | 99.4% | 87.3% | 96.2% | 98.9% | 103% | 97.6% | 85.6% | 105% | 104% | 89.2% | 37.6% | 98.3% | 101% | 119% | 125% | 106% | 105% | 112% | 111% | 91.4%
CC[C@H]1OC(=O)[C@H](C)[C@@H](O[C@H]2C[C@@](C)(OC)[C@@H](O)[C@H](C)O2)[C@H](C)[C@@H](O[C@@H]2O[C@H](C)C[C@H](N(C)C)[C@H]2O)[C@](C)(OC)C[C@@H](C)C(=O)[C@H](C)[C@@H](O)[C@]1(C)O | 96.8% | 95.3% | 98.4% | 98.4% | 103% | 91.7% | 93.8% | 97.3% | 84.6% | 92.7% | 87.6% | 97% | 102% | 96% | 99% | 103% | 106% | 105% | 95.8% | 90.4% | 93.4% | 84.7% | 105% | 111% | 111% | 101% | 110% | 105% | 117% | 114% | 82.4% | 93% | 83.2%
C[C@H](NC(=O)Cc1cc(F)cc(F)c1)C(=O)N[C@H](C(=O)OC(C)(C)C)c1ccccc1 | 100% | 96.2% | 91.7% | 89.2% | 102% | 69.9% | 92.1% | 85.6% | 79.7% | 87.9% | 70.2% | 103% | 92.3% | 98.3% | 105% | 107% | 87.3% | 96.5% | 88.6% | 102% | 88.7% | 71.4% | 90.6% | 91.6% | 80.6% | 103% | 96.9% | 89.2% | 91.3% | 79.6% | 74.7% | 86.9% | 70.3%
CC(=O)OC[C@@H]1O[C@H]([C@H](OC(C)=O)[C@@H]1OC(C)=O)N2\C=C/C(=O)NC2=O | – | – | – | – | – | – | – | – | – | – | – | – | – | – | – | – | – | – | – | – | – | – | 118% | 109% | 137% | 119% | 114% | 143% | 113% | 112% | 122% | 108% | 93.9%
Oc1ccc(OCc2ccccc2)cc1 | 89.8% | 106% | 98.9% | 113% | 20.8% | 103% | 106% | 97.1% | 92.5% | 47.7% | 28.7% | 103% | 106% | 108% | 110% | 13.6% | 113% | 114% | 104% | 77.6% | 58.3% | 31.6% | 112% | 114% | 130% | 119% | 47.4% | 109% | 126% | 109% | 98.9% | 69.2% | 30.3%
